Measurements as given in the supplement of paper PMC11451515.

What was measured:
Test in all cases: AUC of viability dose-response curve (% viability x log10 dose units); higher = less sensitive
Conditions in all cases: 48 h
[1] = tested on: NOMO1
Summary of the method: (§1)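 Leukemia cells adapted to each medium (500 or 1000 cells/well, 1536-well plates) were exposed to library compounds in DMSO for 48 h at 37°C at 11 threefold doses, 47 μM to 0.79 nM. Luminescence by CellTiter-Glo One was normalised per plate to DMSO and cell-free wells, then fitted with a four-parameter log-logistic curve on log10 dose. Curves above full viability were scaled and quality-control failures removed before area under the curve was integrated by trapezoidal rule.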

[2] = tested on: P12-Ichikawa
Summary of the method: as §1

[3] = tested on: SEM cells
Summary of the method: as §1

[4] = RPMI 5 mM glucose + 10% dialyzed FBS

Structure (SMILES) | AUC of viability dose-response curve ([1]; HPLM + 10% dialyzed FBS) | AUC of viability dose-response curve ([1]; RPMI 5 mM glucose + 10% FBS) | AUC of viability dose-response curve [1, 4] | AUC of viability dose-response curve ([2]; HPLM + 10% dialyzed FBS) | AUC of viability dose-response curve ([2]; RPMI 5 mM glucose + 10% FBS) | AUC of viability dose-response curve [2, 4] | AUC of viability dose-response curve ([3]; HPLM + 10% dialyzed FBS) | AUC of viability dose-response curve ([3]; RPMI 5 mM glucose + 10% FBS) | AUC of viability dose-response curve [3, 4]
Cc1ccc(NC(=O)c2ccc(CN3CCN(C)CC3)cc2)cc1Nc1nccc(-c2cccnc2)n1 | 477 | 459 | 454 | 460 | 470 | 477 | 465 | 468 | 467
COc1cc2nccc(Oc3ccc(NC(=O)Nc4cc(C)on4)c(Cl)c3)c2cc1OC | 471 | 449 | 467 | 458 | 453 | 455 |  |  | 
Cl.c1cnc2cc3c(cc2n1)C1CNCC3C1 | 465 | 470 | 467 | 474 | 444 | 467 | 458 | 444 | 461
C#CCN(C)[C@H](C)Cc1ccccc1 | 401 | 385 | 410 | 431 | 413 | 402 | 401 | 410 | 407
C=C(C)[C@@H]1CC[C@]2(C)CC[C@]3(C)[C@H](CC[C@@H]4[C@@]5(C)CC[C@H](O)C(C)(C)[C@@H]5CC[C@]43C)[C@@H]12 | 444 | 466 | 446 | 458 | 467 | 459 |  |  | 
Clc1ccc(C2(c3ccc(-c4cn[nH]c4)cc3)CCNCC2)cc1 | 427 | 389 | 395 | 419 | 369 | 390 | 384 | 445 | 388
O=[N+]([O-])c1cn2c(n1)OC[C@@H](OCc1ccc(OC(F)(F)F)cc1)C2 | 454 | 459 | 470 | 450 | 453 | 458 | 444 | 466 | 455
O=C(O)c1ccccc1C(=O)Nc1ccc(-c2ccccc2)cc1 | 462 | 463 | 460 | 468 | 461 | 469 | 449 | 457 | 456
CC/1=C/N([C@@H]2C[C@@H](O)[C@H](CO)O2)C(=O)NC1=O | 453 | 408 | 413 | 388 | 353 | 338 |  |  | 
C[N]1C=NC=C1[C@@](N)(C2=CC=C(Cl)C=C2)C3=CC=C4N(C)C(=O)\C=C(\C5=CC=CC(=C5)Cl)C4=C3 | 398 | 430 | 401 | 377 | 352 | 376 | 284 | 279 | 342
C1Cc2[nH]nc(-c3nn[nH]n3)c2C1 | 460 | 460 | 456 | 470 | 458 | 472 | 464 | 438 | 445
CC1(C)[C@@H](O[C@H]2O[C@H](C(=O)O)[C@@H](O)[C@H](O)[C@H]2O[C@@H]2O[C@H](C(=O)O)[C@@H](O)[C@H](O)[C@H]2O)CC[C@]2(C)[C@H]3C(=O)C=C4[C@@H]5C[C@@](C)(C(=O)O)CC[C@]5(C)CC[C@@]4(C)[C@]3(C)CC[C@@H]12 | 407 | 455 | 452 | 473 | 468 | 470 | 383 | 437 | 450
COC(=O)N1CCN(Cc2cccc(NC(=O)Nc3ccc(C)nc3)c2F)CC1 | 418 | 434 | 434 | 458 | 434 | 408 | 470 | 464 | 448
Cc1ccc(C(C)(O)c2nc3ccccc3s2)c(C)c1 (configuration not stated) | 427 | 433 | 457 | 412 | 415 | 426 | 386 | 387 | 386
O=C(NC1CCOCC1)c1ccc(-c2cc(-c3c[nH]nc3-c3ccccn3)ccn2)cc1 | 458 | 465 | 466 | 463 | 448 | 435 | 464 | 474 | 453
Nc1ccccc1NC(=O)c1ccc(CNc2nccc(-c3cccnc3)n2)cc1 | 351 | 364 | 353 | 355 | 349 | 352 | 312 | 306 | 304
Cc1ccc(NC(=O)C2(c3ccc4c(c3)OC(F)(F)O4)CC2)nc1-c1cccc(C(=O)O)c1 | 252 | 246 | 264 | 268 | 253 | 260 | 241 | 202 | 232
O=C1c2c(O)cccc2[C@H]([C@@H]2O[C@H](CO)[C@@H](O)[C@H](O)[C@H]2O)c2cc(CO)cc(O)c21 | 455 | 404 | 431 | 467 | 467 | 465 | 449 | 431 | 441
NC(=O)c1ccc(-c2nc(-c3ccc4c(c3)OCCO4)c(-c3ccccn3)[nH]2)cc1 | 449 | 460 | 473 | 470 | 459 | 473 | 451 | 462 | 416
COc1cc(N2CCC(C(N)=O)CC2)ccc1Nc1nc(N)c(Cl)c(Nc2ccccc2[S+](=O)([O-])C(C)C)n1 | 381 | 393 | 372 | 445 | 421 | 410 | 360 | 375 | 350
CC[C@H]1OC(=O)[C@H](C)[C@@H](O[C@H]2C[C@@](C)(OC)[C@@H](O)[C@H](C)O2)[C@H](C)[C@@H](O[C@@H]2O[C@@H](C)C[C@H](N(C)C)[C@H]2O)[C@](C)(O)C[C@@H](C)C(=O)[C@H](C)[C@@H](O)[C@]1(C)O | 423 | 403 | 429 | 402 | 402 | 411 | 401 | 418 | 400
O=C(O)c1ccc2cc(-c3ccc(O)c(C45CC6CC(CC(C6)C4)C5)c3)ccc2c1 | 323 | 330 | 311 | 299 | 285 | 277 | 287 | 282 | 266

Structure (SMILES) | AUC of viability dose-response curve ([1]; HPLM + 10% dialyzed FBS) | AUC of viability dose-response curve ([1]; RPMI 5 mM glucose + 10% FBS) | AUC of viability dose-response curve [1, 4] | AUC of viability dose-response curve ([2]; HPLM + 10% dialyzed FBS) | AUC of viability dose-response curve ([2]; RPMI 5 mM glucose + 10% FBS) | AUC of viability dose-response curve [2, 4] | AUC of viability dose-response curve ([3]; HPLM + 10% dialyzed FBS) | AUC of viability dose-response curve ([3]; RPMI 5 mM glucose + 10% FBS) | AUC of viability dose-response curve [3, 4]
CNC(=O)[C@H](Cc1ccccc1)NC(=O)[C@H](CC(C)C)[C@H](CSc1cccs1)C(=O)NO | 433 | 402 | 415 | 409 | 373 | 386 | 405 | 389 | 340
COc1cc2c(Nc3ccc(NC(=O)c4ccccc4)cc3)ncnc2cc1OCCCN1CCOCC1 | 456 | 417 | 425 | 383 | 390 | 386 | 396 | 389 | 385
COc1ccc(Cc2nccc3cc(OC)c(OC)cc23)cc1OC | 453 | 458 | 454 | 462 | 466 | 458 | 469 | 460 | 465
C[C@@H]1C[C@H]2[C@@H]3\C=C(C)/C4=C/C5=C(C[C@]4(C)[C@H]3[C@@H](O)C[C@]2(C)[C@@]1(O)C(=O)COC(C)=O)C=N[N]5C6=CC=CC=C6 | 442 | 411 | 449 | 323 | 264 | 251 | 304 | 277 | 258
FC(F)(F)c1ccc(Nc2nc3cc(Oc4ccnc(-c5ncc(C(F)(F)F)[nH]5)c4)ccc3[nH]2)cc1 | 472 | 466 | 476 | 465 | 460 | 458 | 442 | 439 | 420
Cc1ccc(-n2nc(C(C)(C)C)cc2NC(=O)Nc2ccc(OCCN3CCOCC3)c3ccccc23)cc1 | 474 | 460 | 471 | 477 | 463 | 473 | 403 | 399 | 398
CCC[C@@H]1C[C@@H](C(=O)N[C@@H]([C@H]2O[C@H](SC)[C@H](O)[C@@H](O)[C@H]2O)[C@@H](C)O)N(C)C1.Cl | 428 | 463 | 457 | 448 | 438 | 399 | 471 | 473 | 465
CC[C@]1(O)C[C@H]2CN(CCC3=C([NH]C4=C3C=CC=C4)[C@@](C2)(C(=O)OC)C5=CC6=C(C=C5OC)N(C=O)[C@H]7[C@](O)([C@H](OC(C)=O)[C@]8(CC)\C=C/C[N@@]9CC[C@]67[C@H]89)C(=O)OC)C1 | 272 | 239 | 264 | 185 | 180 | 224 |  |  | 
Cc1[nH]c(/C=C2\C(=O)Nc3ccc([S+](=O)([O-])N(C)c4cccc(Cl)c4)cc32)c(C)c1C(=O)N1CCN(C)CC1 | 451 | 462 | 456 | 436 | 430 | 432 | 393 | 379 | 368
CO/N=C(/C(=O)N[C@@H]1C(=O)N2C(C(=O)O)=C(Cn3ccc(=N)n3CCO)CS[C@H]12)c1csc(N)n1 | 421 | 446 | 459 | 460 | 452 | 463 | 413 | 461 | 467
CCCCCCCCCCCC(CC1OC(=O)C1CCCCCC)OC(=O)C(CC(C)C)NC=O (configuration not stated) | 452 | 461 | 456 | 443 | 440 | 443 | 407 | 343 | 391
COCCOC(=O)C/1=C(C)/NC/2=C(C1C3=CC=CC(=C3)O)/C(=O)CC(C2)C4=C(OC)C=CC=C4 (configuration not stated) | 454 | 469 | 467 | 450 | 451 | 448 | 425 | 415 | 413
C[C@H]1CN(C[C@@H](C)O1)CC(=O)NC2=CC=C3SC4=C(CC3=C2)C=CC=C4\C5=C\C(=O)\C=C(/O5)N6CCOCC6 | 397 | 439 | 433 |  |  |  |  |  | 
Cc1nc(Nc2ncc(C(=O)Nc3c(C)cccc3Cl)s2)cc(N2CCN(CCO)CC2)n1 | 448 | 461 | 447 | 358 | 396 | 398 |  |  | 
Cc1c[nH]c(/C=C2\C(=O)Nc3ccccc32)c1CCC(=O)O | 399 | 440 | 428 | 436 | 413 | 390 |  |  | 
C[C@@H](c1ncncc1F)[C@](O)(Cn1cncn1)c1ccc(F)cc1F | 462 | 448 | 446 | 464 | 436 | 450 |  |  | 
O=C/1\C=C(/OC(=C1)/C2=C3SC4=C(SC3=CC=C2)C=CC=C4)N5CCOCC5 |  |  |  |  |  |  | 417 | 409 | 411
COc1cc(N2CCC(O)CC2)ccc1Nc1cc(Nc2ccccc2[S+](=O)([O-])C(C)C)c2cc[nH]c2n1 | 331 | 414 | 404 | 411 | 392 | 400 |  |  | 
COc1cc2c(N3CCN(C(=O)Nc4ccc(OC(C)C)cc4)CC3)ncnc2cc1OCCCN1CCCCC1 | 395 | 357 | 371 | 406 | 360 | 369 |  |  | 
COc1cc2nccc(Oc3ccc(NC(=O)C4(C(=O)Nc5ccc(F)cc5)CC4)cc3)c2cc1OC | 433 | 457 | 442 | 436 | 440 | 427 |  |  | 
COc1cc2nccc(Oc3ccc(NC(=O)Nc4ccc(F)cc4F)c(F)c3)c2cc1OC | 413 | 414 | 429 | 419 | 401 | 395 |  |  | 
